Measured values taken from patent publication US5670509A, “Tocolytic oxytocin receptor antagonists” (priority 1995, dated 1997).
Read-outs that look alike come from different tables or passages of the source.

Assays:
premature labor = conditions: compared with ritodrine; cited from earlier work
uterine OT receptors = target: T1, uterine OT receptors (Rattus norvegicus, UniProt P70536); assay: Radioligand binding assay: competition of [3H]oxytocin binding to a crude membrane preparation of uteri from DES-treated rats; conditions: 1 nM [3H]OT; 60 minutes; 22° C.; pH 7.4; rat uterus membranes
T1 construct: from tissue; host or cells: rat uterus (DES-treated), crude membrane preparation
T1 sequence (P70536 1-388): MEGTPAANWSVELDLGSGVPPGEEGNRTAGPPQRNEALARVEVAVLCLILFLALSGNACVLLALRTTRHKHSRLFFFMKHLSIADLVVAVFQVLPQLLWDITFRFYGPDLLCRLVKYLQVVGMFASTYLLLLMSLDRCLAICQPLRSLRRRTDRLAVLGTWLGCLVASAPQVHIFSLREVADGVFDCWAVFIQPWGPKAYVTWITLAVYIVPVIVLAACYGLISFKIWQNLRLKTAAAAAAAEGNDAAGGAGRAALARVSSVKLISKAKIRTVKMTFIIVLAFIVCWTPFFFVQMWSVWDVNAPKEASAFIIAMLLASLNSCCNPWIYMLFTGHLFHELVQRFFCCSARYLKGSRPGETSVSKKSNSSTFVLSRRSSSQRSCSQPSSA
Description: The high affinity binding of [^3 H] Oxytocin (OT)([tyrosyl, 3,5-[^3 H]OT; 30-60 Ci/mmol; New England Nuclear. Boston, Mass.) to uterine OT receptors was based on an assay (Fuchs, A-R; Fuchs, F; Soloff, MS. 1985 J. Clin. Endocrinol. Metab. 60:37) using a crude membrane preparation of uteri taken from diethylstilbestrol dipropionate (DES)-treated (0.3 mg/kg, ip; 18-24) rats. Competition studies were conducted at equilibrium (60 minutes; 22° C.) using 1 nM[^3 H]OT in the following assay buffer: 50 mM Tris-HCl, 5 mM MgCl2, and 0.1% BSA, pH 7.4. Nonspecific binding (10% of the total binding) was determined using 1 μM unlabeled OT and the binding reaction was terminated by filtration through glass fiber filters using a cell harvester (model 7019, Skatron, Inc., Sterling, Va.). IC50 (the concentration of tested compound that inhibits 50% of OT) was reported, unless otherwise noted.
IC50 values were determined for both [^3 H]OT and [^3 H]AVP binding assays by linear regression of the relation log concentration of compound vs. percent inhibition of specific binding.

[1] = cited from earlier work

SMILES: CCO [Ethanol]
- effectiveness in preventing premature labor (in words) (premature labor): as effective as ritodrine in preventing premature labor
- reduction in the incidence of fetal respiratory distress (in words) (premature labor): does not produce a corresponding reduction in the incidence of fetal respiratory distress that administration of ritodrine does

SMILES: O=C(Cc1ccc2c(c1)OCO2)N1CCC2(C=Cc3ccccc32)CC1 [Example 10]
- IC50 (uterine OT receptors): 3.7 µM

SMILES: O=C(Nc1ccc(CC(=O)N2CCC3(C=Cc4ccccc43)CC2)cc1)c1ccc2[nH]cnc2c1 [Example 12]
- IC50 (uterine OT receptors): 0.15 µM

SMILES: O=C(CCc1c[nH]cn1)Nc1ccc(CC(=O)N2CCC3(CCc4ccccc43)CC2)cc1 [Example 14]
- IC50 (uterine OT receptors): 0.17 µM

SMILES: O=C(Nc1ccc(CC(=O)N2CCC3(C=Cc4ccccc43)CC2)cc1)c1ccc2[nH]ccc2c1 [Example 15]
- IC50 (uterine OT receptors): 0.31 µM

SMILES: O=C(Nc1ccc(CC(=O)N2CCC3(C=Cc4ccccc43)CC2)cc1)c1ccc2[nH]nnc2c1 [Example 16]
- IC50 (uterine OT receptors): 0.52 µM

SMILES: O=S(=O)([O-])[O-].[Mg+2] [Magnesium sulfate]
- toxicity at plasma concentrations above the therapeutic range (in words) ([1]; above 4 to 8 mg/dL plasma): can cause inhibition of cardiac conduction and neuromuscular transmission, respiratory depression and cardiac arrest
- therapeutic range of plasma concentrations ([1]; plasma): 4 to 8 mg/dL

SMILES: CC(NCCc1ccc(O)cc1)C(O)c1ccc(O)cc1 (stereo not drawn) [Ritodrine]
- side effects (in words) ([1]; tocolytic use, in the mother): causes a number of cardiovascular and metabolic side effects in the mother, including tachycardia, increased renin secretion, hyperglycemia (and reactive hypoglycemia in the infant)

SMILES: CC(C)(C)NCC(O)c1ccc(O)c(CO)c1 (stereo not drawn) [albuterol]
- side effects (in words) ([1]; in vivo): side effects similar to those of ritodrine

SMILES: CC(C)(C)NCC(O)c1cc(O)cc(O)c1 (stereo not drawn) [terbutaline]
- side effects (in words) ([1]; tocolytic use, in the mother): side effects similar to those of ritodrine
